Structures can show the parent of a compound that is named as a salt.
Key:
[1] = molecular target: T1, human JAK1 (a.a. 837-1142) (Homo sapiens, UniProt P23458); experiment: In vitro JAK kinase assay (HTRF, phosphorylation of a biotinylated peptide), JAK1; format: biochemical
T1 construct: human JAK1 (a.a. 837-1142); His tag (N); made in house; host or cells: insect cells (baculovirus)
In short: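 IC50s come from HTRF detection (Eu-Py20, SA-APC, 40 min binding) after 1 h RT reactions with 500 nM biotinylated peptide in Tris pH 7.8 buffer. ATP either 1 mM or Km-level, 90 μM for JAK1 and 30 μM for JAK2; enzymes are baculovirus-expressed His-tagged catalytic domains (JAK1 837-1142, JAK2 828-1132).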

Jak2 (a.a. 828-1132) = molecular target: T2, Jak2 (a.a. 828-1132) (Homo sapiens, UniProt O60674); experiment: In vitro JAK kinase assay (HTRF, phosphorylation of a biotinylated peptide), JAK2, reported as JAK2/JAK1 ratio; format: biochemical
T2 construct: Jak2 (a.a. 828-1132); His tag (N); made in house; host or cells: insect cells (baculovirus)
T2 sequence (O60674 828-1132): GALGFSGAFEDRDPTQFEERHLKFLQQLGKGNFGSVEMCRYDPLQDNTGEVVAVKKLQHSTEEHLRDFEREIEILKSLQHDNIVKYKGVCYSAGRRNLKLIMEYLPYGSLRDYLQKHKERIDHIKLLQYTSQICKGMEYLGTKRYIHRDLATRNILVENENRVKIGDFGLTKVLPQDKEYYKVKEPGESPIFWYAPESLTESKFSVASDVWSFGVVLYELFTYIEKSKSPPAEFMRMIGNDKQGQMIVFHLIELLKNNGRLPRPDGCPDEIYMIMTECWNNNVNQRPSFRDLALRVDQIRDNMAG

T1 sequence (P23458 849-1154): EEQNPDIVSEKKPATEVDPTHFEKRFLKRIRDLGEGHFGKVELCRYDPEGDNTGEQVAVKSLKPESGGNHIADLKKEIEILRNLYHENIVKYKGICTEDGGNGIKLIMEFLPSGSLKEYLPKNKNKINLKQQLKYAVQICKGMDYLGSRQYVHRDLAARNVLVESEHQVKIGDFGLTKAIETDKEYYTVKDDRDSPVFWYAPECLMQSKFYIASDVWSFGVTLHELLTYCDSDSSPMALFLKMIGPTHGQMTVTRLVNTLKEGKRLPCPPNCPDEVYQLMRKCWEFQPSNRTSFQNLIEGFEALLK

| Structure (SMILES) | IC50 ([1]; Assay Conditions 1 mM ATP) [nM] | JAK2/JAK1 IC50 ratio (Jak2 (a.a. 828-1132); Assay Conditions 1 mM ATP) | IC50 ([1]; Assay Conditions Km (ATP 90 μM for Jak1)) [nM] | JAK2/JAK1 IC50 ratio (Jak2 (a.a. 828-1132); Assay Conditions Km (ATP 90 μM for Jak1, 30 μM for Jak2)) |
| --- | --- | --- | --- | --- |
| N#CC[C@@H]([C@H]1CCN(c2ccnnc2C#N)C1)n1cc(-c2ncnc3[nH]ccc23)cn1 [Example 106, 4-((S)-3-((S)-1-(4-(7H-pyrrolo[2,3-d]pyrimidin-4-yl)-1H-pyrazol-1-yl)-2-cyanoethyl)pyrrolidin-1-yl) pyridazine-3-carbonitrile trifluoroacetate salt] | < 50 | 12.6 | – | – |
| N#CCC(C1CCN(c2ccnc(Cl)n2)C1)n1cc(-c2ncnc3[nH]ccc23)cn1 (single isomer, unassigned) [3, Step 2a] | – | – | < 50 | 2.3 |
| N#CCC(C1CCN(c2ncc3c(c2C#N)S(=O)(=O)CC3)C1)n1cc(-c2ncnc3[nH]ccc23)cn1 (single isomer, unassigned) [Example 172, 6-(3-{2-cyano-1-[4-(7H-pyrrolo[2,3-d]pyrimidin-4-yl)-1H-pyrazol-1-yl]ethyl}pyrrolidin-1-yl)-2,3-dihydrothieno[3,2-c]pyridine-7-carbonitrile 1,1-dioxide] | < 50 | 20.0 | – | – |
| N#CCC(C1CCN(c2nc3cccc(O)c3o2)C1)n1cc(-c2ncnc3[nH]ccc23)cn1 (single isomer, unassigned) [Example 161, 3-[1-(7-hydroxy-1,3-benzoxazol-2-yl)pyrrolidin-3-yl]-3-[4-(7H-pyrrolo[2,3-d]pyrimidin-4-yl)-1H-pyrazol-1-yl]propanenitrile] | < 50 | 24.7 | – | – |
| N#CCC(C1CCN(c2ccc3c(n2)C(F)(F)CC3)C1)n1cc(-c2ncnc3[nH]ccc23)cn1 (single isomer, unassigned) [Example 157, 3-[1-(7,7-difluoro-6,7-dihydro-5H-cyclopenta[b]pyridin-2-yl)pyrrolidin-3-yl]-3-[4-(7H-pyrrolo[2,3-d]pyrimidin-4-yl)-1H-pyrazol-1-yl]propanenitrile bis(trifluoroacetate)] | < 50 | >5.3 | – | – |
| N#CC[C@@H]([C@H]1CCN(c2scc(Cl)c2C#N)C1)n1cc(-c2ncnc3[nH]ccc23)cn1 [Example 78, 4-chloro-2-((3S)-3-{(1S)-2-cyano-1-[4-(7H-pyrrolo[2,3-d]pyrimidin-4-yl)-1H-pyrazol-1-yl]ethyl}pyrrolidin-1-yl)thiophene-3-carbonitrile] | < 50 | 32.1 | – | – |
| FCC([C@H]1CCN(c2nc3cccnc3o2)C1)n1cc(-c2ncnc3[nH]ccc23)cn1 (stereo partly drawn) [70 (3S- enantiomer), 2-((3S)-3-{2-fluoro-1-[4-(7H-pyrrolo[2,3-d]pyrimidin-4-yl)-1H-pyrazol-1-yl]ethyl}pyrrolidin-1-yl)[1,3]oxazolo[5,4-b]pyridine phosphoric acid salt] | < 50 | 15 | – | – |
